Source: PMC9778238, “How Discoloration of Porcine Cruor Hydrolysate Allowed the Identification of New Antifungal Peptides” (Foods, 2022)
Ends that are not written are not given here.

Tested on: Paecilomyces spp.
Experiment: not given
Type: cell-based
Details: 48 h
Description: (§1) The peptide synthesis was performed by Laboratoire Innodal (Lévis, QC, Canada). Fourteen peptides were synthesized by standard solid-phase peptide synthesis (SPPS) on an automated peptide synthesizer. Solubility of peptides was first tested on saline water with 0.85% NaCl. […] Each peptide was solubilized in a small volume of dimethylsulfoxide (DMSO), and water was subsequently added until a 10% (v/v) DMSO concentration was reached. The stock solution of each peptide was at a concentration of 2.5 mM. The pH of the final solution was below the isoelectric point of each peptide. […] Antifungal assays on synthesized peptides were realized using methods described below.
(§2) The antibacterial activity was tested against two indicator bacteria including Escherichia coli and Listeria ivanovii (Table 1). These two strains are Gram-negative and Gram-positive, respectively and are commonly sensitive strains. They were subcultured in Tryptic Soy Broth (TSB) two times for 18 h, at 37 °C for E. coli and 30 °C for L. ivanovii. The antifungal activity was evaluated against four filamentous molds and four yeasts (Table 1). All the strains for antifungal assays were chosen since they are the most often strains identified as spoilage microorganisms of food products, specifically in the meat industry. The 4 filamentous molds were subcultured on Potato Dextrose Agar (PDA) at 25 °C, for 7 days, 2 times. The 4 yeasts were subcultured in Potato Dextrose Broth (PDB) at 25 °C, for 48 h, 2 to 3 times (Table 1).
(§3) The minimum inhibitory concentration (MIC) of the hydrolysate that induces inhibition of the microorganism tested was determined according to Froidevaux et al.. To quantify the growth inhibition, 96-well microplate assays were performed using Mueller-Hinton broth (MH, BD-Difco, Sparks, MD, USA). Samples were micro-diluted from the stock concentration of 40 mg/mL of proteins. The inoculum was pre-diluted in MH at a concentration of 5 × 10^5 CFU/mL. Then, the microplate was incubated 24 h at 37 °C for E. coli and at 30 °C for L. ivanovii. The molds and yeasts strains were, respectively tested at 2 × 10^4 and 1 × 10^5 conidia or yeast per mL [32]. The automated cell counter was used to determine the concentration. The microplates were incubated for 48 h at 25 °C for the molds and R. mucilaginosa, and at 35 °C for the other yeast strains. The MIC was the lowest concentration that inhibited completely the microorganism growth. The growth was measured by absorbance at 595 nm (Infinite® F200 PRO, Tecan Inc., Durham, NC, USA).
(§4) Then, they were, respectively incubated for 24 h at 37 °C or 30 °C and 48 h at 25 °C. The lowest concentration that inhibited microorganism growth is the MBC or MFC.

Row | Substance | MFC | MIC
1 | FRLLGNVIVVV | 600 ± 0 µM | 625 µM
2 | GHLDDLPGALSALSDLHAHKL | 1700 ± 700 µM | 1300 ± 0 µM
3 | HVDPENFRLLGNVIVVVL | – | >1300 ± 0 µM
4 | LAHKYH [LAHKYH] | 1300 ± 0 µM | 1250 µM
5 | NALAHKYH | 300 ± 0 µM | 200 ± 0 µM

Same assay, conditions: synthesized peptides, stock 2.5 mM in 10% (v/v) DMSO, highest tested concentration 1.25 mM, 48 h at 25 °C, mean ± SD

Row | Substance | MIC
6 | HVDPEN | not active

Tested on: not listed separately
Experiment: RP-UPLC-MS/MS peptide profile, retention time
Type: physicochemical
Details: Poroshell 120 EC-C18, water/acetonitrile with 0.1% formic acid, B 1–13% in 6 min, 35% at 25 min, 100% at 35 min, 23 °C, 500 µL/min, early elution read as high polarity, late as higher hydrophobicity
Text: RP-UPLC coupled with MS/MS Q-TOF system was used to separate, identify, and characterize the peptide population, present in the porcine cruor hydrolysates. RP-UPLC tests were operated using a 1290 Infinity II UPLC (Agilent Technologies, Santa Clara, CA, USA), following the method proposed by. This chromatography instrument was composed of a binary pump (G7120A), a multisampler (G7167B), an in-line degasser and a variable wavelength detector (VWD G7114B) adjusted to 214 nm. […] Then, solvent B ramped to 100% until 35 min and was maintained for 10 min before returning to initial conditions. The cruor hydrolysate samples (2% protein (w/v)) were filtered through 0.22 µm PVDF filter and a volume of 0.25 µL was loaded onto a Poroshell 120 EC-C18 column (2.1 × 100 mm i.d., 2.7 micron, Agilent, Santa Clara, CA, USA) at a flow rate of 500 µL/min.
The determination of the accurate mass was performed using a hybrid ion mobility quadrupole time of flight mass spectrometer (6560 high-definition mass spectrometry (IM-Q-TOF), Agilent, Santa Clara, CA, USA). Calibration was completed using an ESI-L low concentration tuning mix (G1969-85000, Agilent Technologies, Santa Clara, CA, USA). Nitrogen was selected as the drying (13.0 L/min, 150 °C) and nebulizer gas (30 psi). The voltages were set at 3500 V for the capillary, 300 V for the nozzle and 400 V for the fragmentor. Positive mode at Extended Dynamic Range, 2 Ghz, 3200 m/z was used to record signals. Data acquisition and analysis were performed using the Agilent Mass Hunter Software package (LC/MS Data Acquisition, Version B.08.00 and Qualitative Analysis for IM-MS, Version B.07.00 Service Pack 2 with BioConfirm Software and BioConfirm, Version 10.0). A false discovery rate of 1% was used for extraction of biomolecules. […] Finally, these peptides were compared with bioactive peptides already known in the literature or analyzed with a predictive antimicrobial database.

Row | Substance | Retention Time
7 | AAFQKVVAGVANA [porcine hemoglobin fragment β 129–141] | 10.86 min
8 | ANVSTVLTSKYR [porcine hemoglobin fragment α 130–141] | 8.45 min
9 | CLLVTLAAHHPDDFNPS [porcine hemoglobin fragment α 104–120] | 12.90 min
10 | DPENFRLLGNVIVVVLA [porcine hemoglobin fragment β 100–116] | 11.10 min
11 | DQLHVDPENFRLLGNVIVVVLARRLGHDFNPNVQ [porcine hemoglobin fragment β 95–128] | 24.79 min
12 | ERMFLGF [porcine hemoglobin fragment α 30–36] | 16.27 min
13 | ERMFLGFPTTKTYFPHF [porcine hemoglobin fragment α 30–46] | 18.24 min
14 | FESF [porcine hemoglobin fragment β 43–46] | 9.60 min
15 | FESFGDLSNAD [porcine hemoglobin fragment β 43–53] | 12.20 min
16 | FLGFPTTKTYFPHF [porcine hemoglobin fragment α 33–46] | 19.13 min
17 | FRLLGNVIVVVLARRLGHDFNPNVQ [porcine hemoglobin fragment β 104–128] | 21.87 min
18 | GAEALERMFLGFPT [porcine hemoglobin fragment α 25–38] | 9.91 min
19 | GLWGKVNVDEVGGEALGRL [porcine hemoglobin fragment β 14–32] | 16.84 min
20 | HVDPENFRLLGNVIV [porcine hemoglobin fragment β 98–112] | 17.16 min
21 | HVDPENFRLLGNVIVVVLARRLGHDFNPNVQ [porcine hemoglobin fragment β 98–128, synthesized] | 23.26 min
22 | HVDPENFRLLGNVIVVVLARRLGHDFNPNVQA [porcine hemoglobin fragment β 98–129, synthesized] | 23.33 min
23 | KLLSHCL [porcine hemoglobin fragment α 99–105] | 8.01 min
24 | KLLSHCLL [porcine hemoglobin fragment α 99–106] | 10.93 min
25 | KLLSHCLLVTLAAHHPD [porcine hemoglobin fragment α 99–115] | 11.10 min
26 | LANVSTVLTSKYR [porcine hemoglobin fragment α 129–141] | 10.36 min
27 | LERMFLGF [porcine hemoglobin fragment α 29–36] | 17.60 min

Row | Substance | Retention Time
28 | LGFPTTKTYFPHF [porcine hemoglobin fragment α 34–46] | 16.46 min
29 | LLVVYPWTQRF [porcine hemoglobin fragment β 32–42] | 19.00 min
30 | LSDLHAHKLRVDPVNF [porcine hemoglobin fragment α 83–98] | 10.23 min
31 | LVVYPWTQRF [porcine hemoglobin fragment β 33–42] | 16.65 min
32 | NLSHGSDQVKAHGQKVADALTKAVGHLDDLPGAL [porcine hemoglobin fragment α 47–80] | 15.89 min
33 | PNVQAAFQKVVAGVANALA [porcine hemoglobin fragment β 125–143] | 11.10 min
34 | PTTKTYFPHF [porcine hemoglobin fragment α 37–46] | 12.01 min
35 | RMFLGFPTTKTYFPHF [porcine hemoglobin fragment α 31–46] | 17.99 min
36 | SDLHAHKLRVDPVNF [porcine hemoglobin fragment α 84–98] | 9.34 min
37 | SFGDLSNADAVMGNPKVK [porcine hemoglobin fragment β 45–62] | 12.90 min
38 | SFSDGLKHLDNLKGTFA [porcine hemoglobin fragment β 71–87] | 12.90 min
39 | SNADAVMGNPKVKAH [porcine hemoglobin fragment β 50–64] | 9.91 min
40 | STVLTSKYR [porcine hemoglobin fragment α 133–141] | 6.67 min
41 | TSKYR [known antimicrobial peptide, porcine hemoglobin fragment α 137–141] | 1.64 min
42 | TVLTSKYR [porcine hemoglobin fragment α 134–141] | 6.54 min
43 | VLSAADKANVKAAWGKVGGQAGAHGAEA [porcine hemoglobin fragment α 1–28] | 9.15 min
44 | VLSAADKANVKAAWGKVGGQAGAHGAEAL [porcine hemoglobin fragment α 1–29] | 10.86 min
45 | VLSAADKANVKAAWGKVGGQAGAHGAEALERM [porcine hemoglobin fragment α 1–32] | 12.14 min
46 | VLTSKYR [porcine hemoglobin fragment α 135–141] | 5.97 min
47 | VTLAAHHPDDFNPSVHASLDKF [porcine hemoglobin fragment α 107–128] | 11.37 min

Tested on: R. mucilaginosa
Experiment: not given
Type: cell-based, Rhodotorula mucilaginosa
Details: 48 h
Description: as §1, §2, §3, §4

Row | Substance | MFC | MIC
48 | FRLLGNVIVVV | 300 ± 0 µM | 156 µM
49 | GHLDDLPGALSALSDLHAHKL | 600 ± 0 µM | 600 ± 0 µM
50 | HVDPENFRLLGNVIVVVL | 300 ± 100 µM | 100 ± 50 µM
51 | LAHKYH [LAHKYH] | 1300 ± 0 µM | 1250 µM
52 | NALAHKYH | 300 ± 0 µM | 300 ± 0 µM

Same assay, conditions: synthesized peptides, stock 2.5 mM in 10% (v/v) DMSO, highest tested concentration 1.25 mM, 48 h at 25 °C, mean ± SD

Row | Substance | MIC
53 | HVDPEN | not active
